The test concerns CHIKV 181/clone25. The test is described as follows: CHIKV cytopathic effect (CPE) protection assay in Vero cells. Format: cell-based. As to conditions: Chikungunya virus; CHIKV 181/clone25, Vero cells, MOI=0.01, 48 hrs, protection from CPE (crystal violet, absorbance 595nm).

Turning to `CN(Cc1ccccc1)C(=O)CC1Sc2ncccc2N(C)C1=O` (stereo not drawn) [Example 27, N-benzyl-N-methyl-2-(1-methyl-2-oxo-2,3-dihydro-1H-pyrido[2,3-b][1,4]thiazin-3-yl)acetamide], the EC50 is above 100 µM.

As for `O=C(CC1Oc2ncccc2NC1=O)NCC1CCCCC1` (stereo not drawn) [Example 91, N-(cyclohexylmethyl)-2-(2-oxo-2,3-dihydro-1H-pyrido[2,3-b][1,4]oxazin-3-yl)acetamide], the EC50 lay within 10 to 49.9 µM.

Take `CCC(C)NC(=O)CC1Sc2ncccc2N(C)C1=O` (stereo not drawn) [Example 16, N-(sec-butyl)-2-(1-methyl-2-oxo-2,3-dihydro-1H-pyrido[2,3-b][1,4]thiazin-3-y)acetamide]: the EC50 is above 100 µM.

Take `CN1C(=O)C(CC(=O)NCc2ccccc2C(F)(F)F)Sc2ncccc21` (stereo not drawn) [Example 25, 2-(1-methyl-2-oxo-2,3-dihydro-1H-pyrido[2,3-b][1,4]thiazin-3-yl)-N-(2-(trifluoromethyl)benzyl)aceta-mide]: the EC50 was above 100 µM.

Turning to `CN1C(=O)C(CC(=O)NCc2cccnc2)Sc2ncccc21` (stereo not drawn) [Example 13, 2-(1-methyl-2-oxo-2,3-dihydro-1H-pyrido[2,3-b][1,4]thiazin-3-yl)-N-(pyridin-3-ylmethyl)acetamide], the EC50 is above 100 µM.

Molecule `CC(C)CCCNC(=O)CC1Sc2ncccc2NC1=O` (stereo not drawn) [Example 67, N-(4-methylpentyl)-2-(2-oxo-2,3-dihydro-1H-pyrido[2,3-b][1,4]thiazin-3-yl)acetamide] registered an EC50 of 10 to 49.9 µM.

For the molecule `O=C(CC1Sc2ncccc2NC1=O)NCC1CCCCCC1` (stereo not drawn) [Example 62, N-(cycloheptylmethyl)-2-(2-oxo-2,3-dihydro-1H-pyrido[2,3-b][1,4]thiazin-3-yl)acetamide], the EC50 is 10 to 49.9 µM.

As for `CN1C(=O)C(CC(=O)N2CCCC2)Sc2ncccc21` (stereo not drawn) [Example 37, 1-methyl-3-(2-oxo-2-(pyrrolidin-1-yl)ethyl)-1H-pyrido[2,3-b][1,4]thiazin-2(3H)-one], the EC50 was above 100 µM.

`O=C(CC1Sc2ncc(Br)cc2NC1=O)NCC1CCCCC1` (stereo not drawn) [Example 87, 2-(7-bromo-2-oxo-2,3-dihydro-1H-pyrido[2,3-b][1,4]thiazin-3-yl)-N-(cyclohexylmethyl)acetamide] yielded an EC50 of 10 to 49.9 µM.

Turning to `O=C(CC1Sc2ncccc2NC1=O)NCC1CCC(O)CC1` (stereo not drawn) [Example 4, N-((4-hydroxycyclohexyl)methyl)-2-(2-oxo-2,3-dihydro-1H-pyrido[2,3-b][1,4]thiazin-3-yl)acetamide], the EC50 was above 100 µM.

Turning to `CC1CCCN(C(=O)CC2Sc3ncccc3N(C)C2=O)C1` (stereo not drawn) [Example 35, 1-methyl-3-(2-(3-methylpiperidin-1-yl)-2-oxoethyl)-1H-pyrido[2,3-b][1,4]thiazin-2(3H)-one], the EC50 was above 100 µM.

On to `CC(C)(C)CCCNC(=O)CC1Sc2ncccc2NC1=O` (stereo not drawn) [Example 68, N-(4,4-dimethylpentyl)-2-(2-oxo-2,3-dihydro-1H-pyrido[2,3-b][1,4]thiazin-3-yl)acetamide], for which the EC50 is 10 to 49.9 µM.

`O=C(CC1Sc2cnccc2NC1=O)NCC1CCCCC1` (stereo not drawn) [Example 83, N-(cyclohexylmethyl)-2-(2-oxo-2,3-dihydro-1H-pyrido[3,4-b][1,4]thiazin-3-yl)acetamide] had a concentration giving a half-maximal response (EC50) above 100 µM.

As for `CCCCNC(=O)CC1Sc2ncccc2NC1=O` (stereo not drawn) [Example 70, N-butyl-2-(2-oxo-2,3-dihydro-1H-pyrido[2,3-b][1,4]thiazin-3-yl)acetamide], the EC50 lay in the range of 50 to 99.9 µM.

Consider `O=C(CC1Sc2ncccc2NC1=O)NCC1CCCCC1` (stereo not drawn) [Example 2, N-(cyclohexylmethyl)-2-(2-oxo-2,3-dihydro-1H-pyrido[2,3-b][1,4]thiazin-3-yl)acetamide], for which the EC50 is below 10 µM.

`COCCNC(=O)CC1Sc2ncccc2N(C)C1=O` (stereo not drawn) [Example 18, N-(2-methoxyethyl)-2-(1-methyl-2-oxo-2,3-dihydro-1H-pyrido[2,3-b][1,4]thiazin-3-yl)acetamide] displayed an EC50 above 100 µM.

Molecule `CCC(C)(C)CNC(=O)CC1Sc2ncccc2NC1=O` (stereo not drawn) [Example 75, N-(2,2-dimethylbutyl)-2-(2-oxo-2,3-dihydro-1H-pyrido[2,3-b][1,4]thiazin-3-yl)acetamide] showed a 50% effective concentration (EC50) below 10 µM.

The molecule `CCC(CC)CNC(=O)CC1Sc2ncccc2NC1=O` (stereo not drawn) [Example 61, N-(2-ethylbutyl)-2-(2-oxo-2,3-dihydro-1H-pyrido[2,3-b][1,4]thiazin-3-yl)acetamide] showed an EC50 of 10 to 49.9 µM.

`CCCN1CCN(C(=O)CC2Sc3ncccc3N(C)C2=O)CC1` (stereo not drawn) [Example 34, 1-methyl-3-(2-oxo-2-(4-propylpiperazin-1-yl)ethyl)-1H-pyrido[2,3-b][1,4]thiazin-2(3H)-one] came in with an EC50 above 100 µM.

On to `CN1C(=O)C(CC(=O)NCc2cccs2)Sc2ncccc21` (stereo not drawn) [Example 41, 2-(1-methyl-2-oxo-2,3-dihydro-1H-pyrido[2,3-b][1,4]thiazin-3-yl)-N-(thiophen-2-ylmethyl)acetamide], for which the 50% effective concentration (EC50) was in the range of 10 to 49.9 µM.

`O=C(CC1Cc2ncccc2NC1=O)NCC1(F)CCCCC1` (stereo not drawn) [Example 89, N-((1-fluorocyclohexyl)methyl)-2-(2-oxo-1,2,3,4-tetrahydro-1,5-naphthyridin-3-yl)acetamide]: the concentration giving a half-maximal response (EC50) fell in the range of 10 to 49.9 µM.

Turning to `CN1C(=O)[C@@H](CC(=O)NCC2CCCCC2)Sc2ncccc21` [Example 6, (R)-N-(cyclohexylmethyl)-2-(1-methyl-2-oxo-2,3-dihydro-1H-pyrido[2,3-b][1,4]thiazin-3-yl)acetamide], the EC50 is below 10 µM.

As to `O=C(CC1Cc2ncccc2NC1=O)NCc1ccc(F)cc1` (stereo not drawn) [Example 90, N-(4-fluorobenzyl)-2-(2-oxo-1,2,3,4-tetrahydro-1,5-naphthyridin-3-yl)acetamide], the EC50 fell in the range of 10 to 49.9 µM.

The molecule `CN1C(=O)C(CC(=O)N2CCCCC2)Sc2ncccc21` (stereo not drawn) [Example 38, 1-methyl-3-(2-oxo-2-(piperidin-1-yl)ethyl)-1H-pyrido[2,3-b][1,4]thiazin-2(3H)-one] had an EC50 above 100 µM.

For `CC(C)(C)CCNC(=O)CC1Sc2ncccc2NC1=O` (stereo not drawn) [Example 64, N-(3,3-dimethylbutyl)-2-(2-oxo-2,3-dihydro-1H-pyrido[2,3-b][1,4]thiazin-3-yl)acetamide], the EC50 was above 100 µM.

Consider `CN1C(=O)C(CC(=O)NC2CCCCCC2)Sc2ncccc21` (stereo not drawn) [Example 23, N-cycloheptyl-2-(1-methyl-2-oxo-2,3-dihydro-1H-pyrido[2,3-b][1,4]thiazin-3-yl)acetamide], for which the EC50 lay within 10 to 49.9 µM.

`O=C(CC1Sc2ncccc2NC1=O)NCC1(F)CCCCC1` (stereo not drawn) [Example 78, N-((1-fluorocyclohexyl)methyl)-2-(2-oxo-2,3-dihydro-1H-pyrido[2,3-b][1,4]thiazin-3-yl)acetamide] had an EC50 below 10 µM.

The molecule `CC1CCN(C(=O)CC2Sc3ncccc3N(C)C2=O)CC1` (stereo not drawn) [Example 36, 1-methyl-3-(2-(4-methylpiperidin-1-yl)-2-oxoethyl)-1H-pyrido[2,3-b][1,4]thiazin-2(3H)-one] displayed a half-maximal effective concentration (EC50) above 100 µM.

`CN1C(=O)C(CC(=O)NCc2ccccc2)Sc2ncccc21` (stereo not drawn) [Example 15, N-benzyl-2-(1-methyl-2-oxo-2,3-dihydro-1H-pyrido[2,3-b][1,4]thiazin-3-yl)acetamide] yielded an EC50 of 10 to 49.9 µM.

Turning to `CCN1C(=O)C(CC(=O)NCC2CCCCC2)Sc2ncccc21` (stereo not drawn) [Example 44, N-(cyclohexylmethyl)-2-(1-ethyl-2-oxo-2,3-dihydro-1H-pyrido[2,3-b][1,4]thiazin-3-yl)acetamide], the EC50 was in the range of 10 to 49.9 µM.
